Measured values reported in patent US4853401A, “Spiro-hydantoins as aldose reductase inhibitors” (priority 1987, dated 1989).

Tests used:
[1] = test system: accumulation of sorbitol in the crystalline lenses; assay: Inhibition of accumulation of sorbitol in crystalline lenses of diabetic rats; assay type: in vivo, Sprague Dawley rats
Method: (§1) 2.1 Inhibition of accumulation of sorbitol in crystalline lenses and nerves of diabetic rats:
(§2) The effects of the products according to the invention on the proportion of plasma glucose and the accumulation of sorbitol in the crystalline lenses and sciatic nerves of rats made diabetic by streptozotocin were examined by the method of M. J. Peterson, et al (Metabolism, 28, 456-461 (1979)).
(§3) Fasted Sprague Dawley rats were made diabetic by intraperitoneal injection of streptozotocin (75 mg/kg). The product under test was orally administered at a dose of 25 mg/kg after 0, 7 and 24 hours. The rats were sacrificed 27 hours after induction of diabetes. The crystalline lenses and sciatic nerves were taken and preserved at -20° C. until analysed. The crystalline lenses and sciatic nerves were homogenized in water and the proteins were precipitated from ethanol. The precipitate was eliminated by centrifuging and the supernatant liquid was lyophylised. The sorbitol in the sample was determined by the method of B. Bjorkqvist (J. of Chromatograph, 218, 65-71 (1981)), adapted by A. Lenaers et al. (Arch. Intern. Physiol. Bioch., 91, B, 62-63 (1983)).
(§4) The sample was dissolved in pyridine containing galactitol as an internal standard. Derivatives were formed therefrom by phenylisocyanate during incubation for 1 hour at 60° C. The reaction was then stopped by adding methanol and the derivatives were separated and determined by HPLC.
(§5) The results are expressed as percentage inhibition of the accumulation of sorbitol, compared with the controls.

[2] = test system: accumulation of sorbitol in the crystalline lenses; assay: Curative effect of single dose: sorbitol in crystalline lenses; assay type: in vivo, Sprague Dawley rats; conditions: for Accumulation of sorbitol in crystalline lenses, treated: 10 mg/kg oral
Method: (§6) 2.3.2. Curative effect: CP 3192 AR was administered 24 hours after induction of diabetes.
(§7) As before, the experiment was made on 33 male Sprague Dawley rats weighing about 200 g. The 33 rats, which had been fasted the previous day, were made diabetic by an intraperitoneal injection of streptozotocin (75 mg/kg).
(§8) 24 hours after induction of diabetes, 3 rats were sacrificed and used as diabetic controls. A dose of 10 mg/kg of CP 3192 AR was orally administered to 15 rats whereas the other 15 were given the excipient without an active product. 3 control rats and 3 rats treated with CP 3192 AR were sacrificed 2, 4, 8, 24 and 48 hours after administration of the product.
(§9) Estimates were made of the effects of the product on the proportion of plasma glucose and the sorbitol content of the crystalline lenses and sciatic nerves of rats made diabetic by streptozotocin.

[3] = Effect of in vivo doses on plasma glucose of diabetic rats; parameters: species or system Sprague Dawley rats; conditions: n = 5, average ± standard deviation
Method: Compound No. 1 (CP 3182 AR) and No. 2 (CP 3192 AR) were evaluated at various doses, using the experimental model described hereinbefore (.sctn.2.1).
In the case of each product, 25 Sprague Dawley rats fasted the previous day were made diabetic by an intraperitoneal injection of streptozotocin (75 mg/kg). The rats were divided into 5 groups of 5, each orally given 0.3, […] or 10 mg/kg of CP 3182 AR or a control.
An identical experiment was performed with CP 3192 AR at the same doses. Treatment was given immediately after the streptozotocin, and 7 and 24 hours later. The animals were sacrificed 27 hours after induction. Estimates were made of the effects of the products on the proportion of plasma glucose and the sorbitol content of the crystalline lenses and sciatic nerves of rats.

mice = assay: Teratogenic effect on mice; assay type: in vivo; conditions: oral doses of 100 mg/kg and 1 000 mg/kg
[4] = Preventive effect of single dose: plasma glucose; assay type: in vivo, Sprague Dawley rats; conditions: for Plasma glucose, treated: 10 mg/kg oral
Method: (§10) 2.3. In vivo effects of a single dose of compound No. 2 (CP 3192 AR) on the variation in the proportion of plasma glucose and the accumulation of sorbitol in the crystalline lenses and sciatic nerves of diabetic rats.
(§11) 2.3.1. Preventive effect. CP 3192 AR was administered simultaneously with the induction of diabetes. The experiment was performed on 33 male Sprague Dawley rats weighing about 200 g.
(§12) At time 0 hours, 3 rats were sacrificed and used as non-diabetic controls. 30 fats fasted the previous day were made diabetic by an intraperitoneal injection of streptozotocin (75 mg/kg). A dose of 10 mg/kg of CP 3192 AR was simultaneously administered orally to 15 of the rats. The other 15 were given a placebo. 3 control rats and 3 rats treated with CP 3192 AR were sacrificed 2, 4, 8, 24 and 48 hours after induction of diabetes.
(§13) An estimate was made of the effects of the product on the proportion of plasma glucose and the sorbitol content of the crystalline lenses and sciatic nerves.

[5] = Acute oral toxicity (LD50); assay type: in vivo; conditions: mouse, in vivo, mice, read-out: Lethal dose LD50
Method: The LD 50 was calculated by the method of Litchfield and Wilcoxon (J. Pharmacol. Exp. Ther., 96, 99, 1949) and is expressed in mg/kg. The products were orally administered to mice.
Behaviour was studied, 2, 4, 6 and 24 hours after treatment. Observation was continued if symptoms persisted at that time. Deaths were recorded during the 14 days after treatment. The results are given in Table II, in which the numbers of the compounds are the same as the numbers given in column 1 of Table I.

[6] = test system: accumulation of sorbitol in the sciatic nerves; assay: Curative effect of single dose: sorbitol in sciatic nerves; assay type: in vivo, Sprague Dawley rats; conditions: for Accumulation of sorbitol in sciatic nerves, treated: 10 mg/kg oral
Method: as §6, §7, §8, §9

[7] = test system: accumulation of sorbitol in the sciatic nerves; assay: Inhibition of accumulation of sorbitol in sciatic nerves of diabetic rats; assay type: in vivo, Sprague Dawley rats; conditions: oral 25 mg/kg at 0, 7 and 24 h, sacrificed 27 h
Method: as §1, §2, §3, §4, §5

[8] = test system: accumulation of sorbitol in the sciatic nerves; assay: Preventive effect of single dose: sorbitol in sciatic nerves; assay type: in vivo, Sprague Dawley rats; conditions: 10 mg/kg oral
Method: as §10, §11, §12, §13

CC(=O)OCN1C(=O)N(COC(C)=O)C2(C1=O)c1ccccc1-c1ccccc12 [Compound 2, bis-(1',3'-acetoxymethyl)-spiro-/fluorene-9,4'-imidazolidine/-2',5'-dione]
Inhibition of accumulation of sorbitol in vivo, crystalline lenses ([1]; oral 25 mg/kg at 0, 7 and 24 h, sacrificed 27 h): 86% | inhibition of accumulation of sorbitol in crystalline lenses and sciatic nerves (in words) ([1]; oral 25 mg/kg, lenses and sciatic nerves): particularly active | Accumulation of sorbitol in crystalline lenses, treated ([2]; 2 h after administration): 103 ± 27 µg | Accumulation of sorbitol in crystalline lenses, treated ([2]; 4 h after administration): 99 ± 5 µg | Accumulation of sorbitol in crystalline lenses, treated ([2]; 8 h after administration): 125 ± 8 µg | Accumulation of sorbitol in crystalline lenses, treated ([2]; 24 h after administration, p <0.0005): 73 ± 18 µg | Accumulation of sorbitol in crystalline lenses, treated ([2]; 48 h after administration, p < 0.05): 142 ± 47 µg | accumulation of sorbitol in crystalline lenses (in words) ([2]; single dose 10 mg/kg): completely inhibits | duration of effect ([2]; single dose 10 mg/kg, lenses and sciatic nerves): ≥ 48 h | Plasma glucose ([3]; 0.3 mg/kg oral): 425 ± 82 mg/100 ml | Plasma glucose ([3]; 1 mg/kg oral): 444 ± 76 mg/100 ml | Plasma glucose ([3]; 3 mg/kg oral): 446 ± 70 mg/100 ml | Plasma glucose ([3]; 10 mg/kg oral): 472 ± 55 mg/100 ml | teratogenic effect (mice): does not have a mutagenic effect in the Ames test or teratogenic effect on mice | Plasma glucose, treated ([4]; 2 h): 436 ± 45 mg/100 ml | Plasma glucose, treated ([4]; 4 h): 359 ± 45 mg/100 ml | Plasma glucose, treated ([4]; 8 h): 264 ± 73 mg/100 ml | Plasma glucose, treated ([4]; 24 h): 485 ± 35 mg/100 ml | Plasma glucose, treated ([4]; 48 h): 447 ± 34 mg/100 ml | effect on the proportion of plasma glucose ([4]; single oral dose 10 mg/kg): no effect | LD50 at 336 h [5]: > 3000 mg/kg | Accumulation of sorbitol in sciatic nerves, treated ([6]; 2 h after administration): 4.8 ± 2.0 µg | Accumulation of sorbitol in sciatic nerves, treated ([6]; 4 h after administration, n = 1): 4.0 µg | Accumulation of sorbitol in sciatic nerves, treated ([6]; 8 h after administration, n = 1): 2.2 µg | Accumulation of sorbitol in sciatic nerves, treated ([6]; 24 h after administration): 2.5 ± 0.4 µg | Accumulation of sorbitol in sciatic nerves, treated ([6]; 48 h after administration): 5.9 ± 1.8 µg | proportion of sorbitol in sciatic nerves (in words) ([6]; single dose 10 mg/kg): greatly reduces | Inhibition of accumulation of sorbitol in vivo, in sciatic nerves [7]: 85% | Accumulation of sorbitol in sciatic nerves, treated ([8]; 2 h, p < 0.05): 1.23 ± 0.2 µg | Accumulation of sorbitol in sciatic nerves, treated ([8]; 4 h, p < 0.005): 1.8 ± 0.2 µg | Accumulation of sorbitol in sciatic nerves, treated ([8]; 8 h, p < 0.0005): 1.8 ± 0.5 µg | Accumulation of sorbitol in sciatic nerves, treated ([8]; 24 h, p < 0.05): 4.0 ± 1.0 µg | Accumulation of sorbitol in sciatic nerves, treated ([8]; 48 h, p < 0.05): 4.6 ± 1.7 µg
